ChEMBL document CHEMBL5331053, “Defining the structure-activity relationship for a novel class of allosteric MKP5 inhibitors” (Eur J Med Chem, 2022)

Legend:
[1] = molecular target: T1, Dual specificity protein phosphatase 10 (Homo sapiens, UniProt Q9Y6W6); experiment: Inhibition of MKP5 catalytic domain (unknown origin) expressed in Escherichia coli BL21 (DE3) cells assessed as p38alpha MAPK phosphopeptide dephosphorylation using phosphopeptide as substrate incubated for 15 mins followed by substrate addition by malachite green dye based analysis
T1 sequence (Q9Y6W6 whole entry): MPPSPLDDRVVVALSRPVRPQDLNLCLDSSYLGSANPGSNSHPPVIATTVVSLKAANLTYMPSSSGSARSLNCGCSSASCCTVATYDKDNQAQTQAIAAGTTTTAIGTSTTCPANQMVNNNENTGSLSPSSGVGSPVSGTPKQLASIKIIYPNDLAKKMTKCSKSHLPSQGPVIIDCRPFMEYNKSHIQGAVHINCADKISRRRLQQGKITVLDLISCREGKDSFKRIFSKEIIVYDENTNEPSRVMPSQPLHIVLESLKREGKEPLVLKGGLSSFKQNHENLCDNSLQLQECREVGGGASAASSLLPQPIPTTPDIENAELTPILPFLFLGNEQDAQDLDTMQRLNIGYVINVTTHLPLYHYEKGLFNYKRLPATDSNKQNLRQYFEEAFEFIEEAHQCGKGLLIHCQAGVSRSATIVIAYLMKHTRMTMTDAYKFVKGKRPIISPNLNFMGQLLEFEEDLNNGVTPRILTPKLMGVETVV

[2] = molecular target: T1, Dual specificity protein phosphatase 10; experiment: Inhibition of human MKP5 catalytic domain (320 to 467 residues) expressed in Escherichia coli BL21 (DE3) cells by MST assay

IC50 [1] [µM]	SMILES	IC50 [2] [µM]
5	CCc1csc2c1-c1nc(SCC(=O)C(C)(C)C)ncc1CC2	–
7.5	Cc1ccc2c(c1)-c1nc(SCC(=O)C(C)(C)C)ncc1CC2	–
76	CC(C)(C)C(=O)CSc1ncc2c(n1)-c1cccnc1CC2	–
4	CC(C)(C)C(=O)CSc1ncc2c(n1)-c1cc(Cl)ccc1CC2	–
150	CC(=O)N1Cc2cnc(SCC(=O)C(C)(C)C)nc2-c2ccccc21	–
6.2	CC(C)(C)C(=O)CSc1ncc2c(n1)-c1ccccc1CC2	–
7.1	CC(C)(C)C(=O)CSc1ncc2c(n1)-c1ccsc1CC2	–

Continued, molecule first:

SMILES	IC50 [1] [µM]	IC50 [2] [µM]
CSc1scc2c1-c1nc(SCC(=O)C(C)(C)C)ncc1CC2	2.8	3.8
CC(C)(C)C(=O)CSc1ncc2cnc3ccccc3c2n1	59	–
CCN(C)C(=O)CSc1ncc2c(n1)-c1c(csc1SC)CC2	81	–
CC(C)(C)C(=O)CSc1nccc(-c2cccnc2)n1	100	–
CC(C)(C)C(=O)CSc1nccc(-c2ccccc2)n1	27	–
CCCc1csc2c1-c1nc(SCC(=O)C(C)(C)C)ncc1CC2	11	–
